Results reported in patent publication US9062043B2, “Fused tricyclic compounds as serine-threonine protein kinase and PARP modulators” (SENHWA BIOSCIENCES, INC., priority 2006, dated 2015).
Read-outs that look alike come from different tables or passages of the source.

Tests used:
PARP = PARP (Homo sapiens (Human), UniProt P09874); assay: PARP assay (chemiluminescent PARP assay kit, Trevigen); type: biochemical; conditions: for inhibition at 20 µM: read-out: PARP % inhib @ 20 uM
Protocol: Modulatory activity of compounds described herein was assessed in vitro in cell-free CK2 assays. Modulatory activity of compounds described herein also are assessed in vitro in cell-free PARP assays. These assays are described hereafter.
PARP assays are conducted using a chemiluminescent PARP assay kit (Trevigen). Briefly, reactions are performed in Histone-coated strip wells, by adding 10 microliters test compound dissolved in 1×PARP Buffer (prepared by mixing 20×PARP buffer diluted with high-purity water) and 15 microliters diluted PARP-HSA enzyme (diluted in 1× PARP buffer, 0.1 unit per well) to 25 microliters PARP cocktail (prepared from 10×PARP cocktail and 10× activated DNA, both 2.5 microliters per well and 20 microliters per well of 1×PARP buffer). The reactions are incubated at ambient temperature for 60 minutes, then the liquid was removed. After washing the wells four times with PBS (200 ul), 50 microliters of STREP-HRP (Horseradish Peroxidase) solution (diluted 500-fold in 1× Strep-Diluent) was added and the reactions were allowed to incubate for 30 minutes at ambient temperature. The liquid was removed and, after washing the wells four times with PBS (200 ul), 50 microliters each of PeroxyGlo A and B (Chemiluminescent Horseradish Peroxidase substrates) are added and the resulting chemiluminescence quantified on the SpectraMax M5 plate reader.

[1] = tested on: HCT-116 human colorectal carcinoma cells; assay: Cell proliferation assay, Alamar Blue, HCT-116; type: cell-based;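 further: cells exposed to compound for about 4 days, then Alamar Blue added and fluorescence read after about 4 h, medium-only wells as control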
[2] = 1 uM, Table 12, read-out: PARP % inhib @ 1 uM
[3] = at 1 μM, Table 10, read-out: PARP Inhibition %
[4] = HCT-116, Table 16, first HCT-116 column
[5] = HCT-116, Table 16, second HCT-116 column

PARP, sequence (P09874 whole entry): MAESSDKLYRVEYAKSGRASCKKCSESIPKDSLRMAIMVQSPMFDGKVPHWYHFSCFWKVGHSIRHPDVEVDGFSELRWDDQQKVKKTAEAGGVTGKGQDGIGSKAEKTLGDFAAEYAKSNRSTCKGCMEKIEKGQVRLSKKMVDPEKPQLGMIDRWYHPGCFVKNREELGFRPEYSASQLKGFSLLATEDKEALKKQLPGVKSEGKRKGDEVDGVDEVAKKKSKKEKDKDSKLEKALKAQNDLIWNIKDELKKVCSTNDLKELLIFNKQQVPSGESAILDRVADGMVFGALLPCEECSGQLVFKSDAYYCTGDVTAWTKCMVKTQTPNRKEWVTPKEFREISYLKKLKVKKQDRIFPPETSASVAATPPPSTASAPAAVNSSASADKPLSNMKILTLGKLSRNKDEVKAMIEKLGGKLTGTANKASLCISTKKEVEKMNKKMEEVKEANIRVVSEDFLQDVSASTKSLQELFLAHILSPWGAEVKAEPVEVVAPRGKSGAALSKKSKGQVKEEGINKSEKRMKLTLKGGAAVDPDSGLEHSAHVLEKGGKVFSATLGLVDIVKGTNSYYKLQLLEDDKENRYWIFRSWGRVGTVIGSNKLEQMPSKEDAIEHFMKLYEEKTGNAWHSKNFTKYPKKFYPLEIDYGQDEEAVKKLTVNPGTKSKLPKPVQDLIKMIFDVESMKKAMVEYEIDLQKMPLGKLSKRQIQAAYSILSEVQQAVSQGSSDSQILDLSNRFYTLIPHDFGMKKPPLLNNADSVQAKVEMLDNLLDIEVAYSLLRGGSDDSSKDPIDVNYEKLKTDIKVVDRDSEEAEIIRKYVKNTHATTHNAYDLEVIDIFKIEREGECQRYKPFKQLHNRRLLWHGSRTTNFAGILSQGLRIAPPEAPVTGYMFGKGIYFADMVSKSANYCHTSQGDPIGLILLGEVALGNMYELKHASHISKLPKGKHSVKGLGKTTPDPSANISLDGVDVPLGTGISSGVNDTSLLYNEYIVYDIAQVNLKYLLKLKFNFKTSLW

Structure (SMILES)	inhibition at 1 µM (PARP; [2]) [%]	inhibition at 20 µM (PARP; Table 12) [%]	IC50 (PARP; Table 12) [nM]	also measured
O=C(c1ccc2c(c1)[nH]c(=O)c1ccsc12)N1CCOCC1	82	95	400	–
O=C(c1ccc2c(c1)[nH]c(=O)c1ccsc12)N1CCNCC1	96	–	30	–
O=C(NCCN1CCOCC1)c1ccc2c(c1)[nH]c(=O)c1ccsc12	77	96	500	–
CN(C)CCNC(=O)c1ccc2c(c1)[nH]c(=O)c1ccsc12	–	85	–	–
O=C(NCCc1ccccn1)c1ccc2c(c1)[nH]c(=O)c1ccsc12	55	83	1000	–
O=C(O)CCNC(=O)c1ccc2c(c1)[nH]c(=O)c1ccsc12	35	95	–	–
O=C(O)c1ccc2c(c1)nc(Nc1ccccc1)c1ccccc12	–	–	–	inhibition at 1 µM (PARP; [3]): 9%
COC(=O)c1ccc2c(c1)nc(Cl)c1ccsc12 [drawing 552]	18	–	–	–
O=C(NCc1ccccn1)c1ccc2c(c1)[nH]c(=O)c1ccsc12	71	–	1000	–
O=c1[nH]c2cc(CO)ccc2c2sccc12	74	–	400	–
Cc1cc(CNC(=O)c2ccc3c(c2)[nH]c(=O)c2ccsc23)no1	67	–	500	–
COc1ccccc1CNC(=O)c1ccc2c(c1)[nH]c(=O)c1ccsc12	27	–	–	–
COC(=O)c1ccc2c3sccc3c(=O)n(CCCO)c2c1	40	–	–	–
O=C(O)c1ccc2c(c1)[nH]c(=O)c1cc(Br)sc12	39	84	–	–
COc1ccc(CNC(=O)c2ccc3c(c2)[nH]c(=O)c2ccsc23)cc1	45	–	–	–
CN(C)C(=O)c1ccc2c(c1)[nH]c(=O)c1ccsc12	89	97	200	–
O=C(NCc1ccccc1)c1ccc2c(c1)[nH]c(=O)c1ccsc12	36	–	–	–
COC(=O)c1ccccc1NC(=O)c1ccc2c(c1)[nH]c(=O)c1ccsc12	24	–	–	–
O=C(O)c1ccc2c3sccc3c(=O)n(CCCO)c2c1	21	–	–	–
CC(C)(C)OC(=O)NC1CCN(C(=O)c2ccc3c(c2)[nH]c(=O)c2ccsc23)CC1	49	–	–	–
O=c1[nH]c2cc(-c3nn[nH]n3)ccc2c2sccc12	39	–	–	–
CN(C)CCn1c(=O)c2ccsc2c2ccc(C(=O)O)cc21	5	–	–	–

Structure (SMILES)	inhibition at 1 µM (PARP; [2]) [%]	inhibition at 20 µM (PARP; Table 12) [%]	IC50 (PARP; Table 12) [nM]	also measured
O=C(NCCc1ccccc1)c1ccc2c(c1)[nH]c(=O)c1ccsc12	64	–	500	–
O=C(NCc1cccnc1)c1ccc2c(c1)[nH]c(=O)c1ccsc12	71	–	–	–
CC(C)(C)OC(=O)N1CCN(C(=O)c2ccc3c(c2)[nH]c(=O)c2ccsc23)CC1	72	–	300	–
CC(=O)N1CCN(C(=O)c2ccc3c(c2)[nH]c(=O)c2ccsc23)CC1	71	94	300	–
O=C(Nc1ccc(N2CCOCC2)cc1)c1ccc2c(c1)[nH]c(=O)c1ccsc12	0	37	–	–
NC(=O)c1ccc2c(c1)[nH]c(=O)c1ccsc12	79	–	60	–
O=C(NCc1ccncc1)c1ccc2c(c1)[nH]c(=O)c1ccsc12	75	–	1000	–
O=C(O)c1ccc2c(c1)[nH]c(=O)c1ccsc12	58	90	1000	–
O=C(NC1CC1)c1ccc2c(c1)[nH]c(=O)c1ccsc12	69	90	500	–
O=c1[nH]c2ccccc2c2sccc12	–	0	–	–
COc1ccc(NC(=O)c2ccc3c(c2)[nH]c(=O)c2ccsc23)c(OC)c1	0	32	–	–
O=C(Nc1ccc(Cl)cc1)c1ccc2c(c1)[nH]c(=O)c1ccsc12	0	55	–	–
COC(=O)CNC(=O)c1ccc2c(c1)[nH]c(=O)c1ccsc12	47	93	–	–
O=C(NCCc1cnc[nH]1)c1ccc2c(c1)[nH]c(=O)c1ccsc12	83	97	200	–
COc1ccc(CCNC(=O)c2ccc3c(c2)[nH]c(=O)c2ccsc23)cc1OC	15	67	–	–
COCCNC(=O)c1ccc2c(c1)[nH]c(=O)c1ccsc12	65	93	400	–
O=C(Nc1ccc(CN2CCS(=O)(=O)CC2)cc1)c1ccc2c(c1)[nH]c(=O)c1ccsc12	29	–	–	–
O=C(O)CNC(=O)c1ccc2c(c1)[nH]c(=O)c1ccsc12	31	97	–	–
N#Cc1ccc2c(c1)[nH]c(=O)c1ccsc12	51	–	500	–
O=C(Nc1ccccc1)c1ccc2c(c1)[nH]c(=O)c1ccsc12	0	22	–	–
O=C(Nc1cccnc1)c1ccc2c(c1)[nH]c(=O)c1ccsc12	0	62	–	–
Clc1ccc(Nc2nc3cc(-c4nnn[nH]4)ccc3c3sccc23)cc1	–	–	–	IC50 [1, 4]: > 10000 nM

Structure (SMILES)	inhibition at 1 µM (PARP; [2]) [%]	inhibition at 20 µM (PARP; Table 12) [%]	IC50 (PARP; Table 12) [nM]	also measured
O=C(O)c1ccc2c(c1)nc(Nc1cccc(C(=O)NC3CC3)c1)c1ccsc12	–	–	–	IC50 [1, 5]: > 10000 nM
CN(C)CCNc1nc2cc(C(=O)O)ccc2c2ccccc12	–	–	–	inhibition at 1 µM (PARP; [3]): 15%
O=C(O)c1ccc2c(c1)nc(Nc1nc3ccccc3[nH]1)c1ccsc12	–	–	–	IC50 [1, 4]: > 10000 nM
COc1cccc(Nc2nc3cc(-c4nnn[nH]4)ccc3c3sccc23)c1	–	–	–	IC50 [1, 4]: > 10000 nM
O=C(O)c1ccc2c(c1)nc(Nc1cccc(C(=O)N3CCOCC3)c1)c1ccsc12	–	–	–	IC50 [1, 5]: > 10000 nM
O=C(O)c1ccc2c(c1)nc(NCCO)c1ccsc12	–	–	–	IC50 [1, 4]: > 10000 nM
COC(=O)c1ccc2c(c1)[nH]c(=O)c1ccsc12	27	84	–	–
O=C(O)c1ccc2c(c1)nc(N1CCCC1)c1ccsc12	–	–	–	IC50 [1, 4]: > 10000 nM
COc1cc(Nc2nc3cc(-c4nnn[nH]4)ccc3c3sccc23)ccc1F	–	–	–	IC50 [1, 5]: > 10000 nM
CC(C)(C)OC(=O)CCNC(=O)c1ccc2c(c1)[nH]c(=O)c1ccsc12	40	82	–	–
O=C(Nc1nccs1)c1ccc2c(c1)[nH]c(=O)c1ccsc12	0	52	–	–
N#Cc1ccc2c(c1)nc(Cl)c1ccsc12	–	–	–	IC50 [1, 4]: > 10000 nM
CCCNC(=O)c1ccc2c(c1)[nH]c(=O)c1ccsc12	65	88	1000	–
COc1ccccc1NC(=O)c1ccc2c(c1)[nH]c(=O)c1ccsc12	0	24	–	–
CNc1ncc2c(n1)c(NC1CC1)nc1cc(C(=O)O)ccc12	–	–	–	IC50 ([1]; HCT-116, Table 18): > 10000 nM
O=C(Nc1ccccc1C(=O)O)c1ccc2c(c1)[nH]c(=O)c1ccsc12	12	–	–	–
NC1CCN(C(=O)c2ccc3c(c2)[nH]c(=O)c2ccsc23)CC1	96	–	20	–
O=c1c2ccccc2c2ccc(-c3nnn[nH]3)cc2n1CCCO	–	–	–	inhibition at 1 µM (PARP; [3]): 33%
O=C(O)c1ccc2c(c1)nc(NCc1cccnc1)c1ccsc12	–	–	–	IC50 [1, 4]: > 10000 nM
O=C(O)c1ccc2c(c1)nc(NC1CC1)c1ccsc12	–	–	–	IC50 [1, 4]: > 10000 nM
O=C(O)CNc1nc2cc(C(=O)O)ccc2c2sccc12	–	–	–	IC50 [1, 4]: > 10000 nM
O=C(NCCCO)c1ccc2c(c1)nc(NCCCO)c1ccsc12	–	–	–	IC50 [1, 4]: > 10000 nM
